± gives the expanded uncertainty stated by the source.
details: 298.15 K; 101.33 kPa; Liquid; Vibrating tube method

SMILES | mass density [kg/m3]
CO [methanol] | 786.62 ± 0.17
CCO [ethanol] | 785.24 ± 0.19
C=C(C)[C@H]1CC=C(C)CC1 [(R)-1-methyl-4-(1-methylethenyl)cyclohexene] | 837.31 ± 0.31
